The values that follow come from patent publication US9546164B2 (GENENTECH, INC., priority 2013, dated 2017).

Each structure is given as a SMILES string. Where a name gives a salt, the structure may show the parent alone.

The target in the first test is hNav1.7 (Homo sapiens (Human), UniProt Q15858). Description: Tritiated sulfonamide competitive binding to membranes from cells expressing hNav1.7 and the β1 subunit.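 Also: Filter-bound radioactivity counted by liquid scintillation, nonspecific binding defined with excess unlabelled ligand, IC50 fitted to percent inhibition of specific binding.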
hNav1.7, sequence (Q15858 other isoform, or with tags, fused parts or gaps): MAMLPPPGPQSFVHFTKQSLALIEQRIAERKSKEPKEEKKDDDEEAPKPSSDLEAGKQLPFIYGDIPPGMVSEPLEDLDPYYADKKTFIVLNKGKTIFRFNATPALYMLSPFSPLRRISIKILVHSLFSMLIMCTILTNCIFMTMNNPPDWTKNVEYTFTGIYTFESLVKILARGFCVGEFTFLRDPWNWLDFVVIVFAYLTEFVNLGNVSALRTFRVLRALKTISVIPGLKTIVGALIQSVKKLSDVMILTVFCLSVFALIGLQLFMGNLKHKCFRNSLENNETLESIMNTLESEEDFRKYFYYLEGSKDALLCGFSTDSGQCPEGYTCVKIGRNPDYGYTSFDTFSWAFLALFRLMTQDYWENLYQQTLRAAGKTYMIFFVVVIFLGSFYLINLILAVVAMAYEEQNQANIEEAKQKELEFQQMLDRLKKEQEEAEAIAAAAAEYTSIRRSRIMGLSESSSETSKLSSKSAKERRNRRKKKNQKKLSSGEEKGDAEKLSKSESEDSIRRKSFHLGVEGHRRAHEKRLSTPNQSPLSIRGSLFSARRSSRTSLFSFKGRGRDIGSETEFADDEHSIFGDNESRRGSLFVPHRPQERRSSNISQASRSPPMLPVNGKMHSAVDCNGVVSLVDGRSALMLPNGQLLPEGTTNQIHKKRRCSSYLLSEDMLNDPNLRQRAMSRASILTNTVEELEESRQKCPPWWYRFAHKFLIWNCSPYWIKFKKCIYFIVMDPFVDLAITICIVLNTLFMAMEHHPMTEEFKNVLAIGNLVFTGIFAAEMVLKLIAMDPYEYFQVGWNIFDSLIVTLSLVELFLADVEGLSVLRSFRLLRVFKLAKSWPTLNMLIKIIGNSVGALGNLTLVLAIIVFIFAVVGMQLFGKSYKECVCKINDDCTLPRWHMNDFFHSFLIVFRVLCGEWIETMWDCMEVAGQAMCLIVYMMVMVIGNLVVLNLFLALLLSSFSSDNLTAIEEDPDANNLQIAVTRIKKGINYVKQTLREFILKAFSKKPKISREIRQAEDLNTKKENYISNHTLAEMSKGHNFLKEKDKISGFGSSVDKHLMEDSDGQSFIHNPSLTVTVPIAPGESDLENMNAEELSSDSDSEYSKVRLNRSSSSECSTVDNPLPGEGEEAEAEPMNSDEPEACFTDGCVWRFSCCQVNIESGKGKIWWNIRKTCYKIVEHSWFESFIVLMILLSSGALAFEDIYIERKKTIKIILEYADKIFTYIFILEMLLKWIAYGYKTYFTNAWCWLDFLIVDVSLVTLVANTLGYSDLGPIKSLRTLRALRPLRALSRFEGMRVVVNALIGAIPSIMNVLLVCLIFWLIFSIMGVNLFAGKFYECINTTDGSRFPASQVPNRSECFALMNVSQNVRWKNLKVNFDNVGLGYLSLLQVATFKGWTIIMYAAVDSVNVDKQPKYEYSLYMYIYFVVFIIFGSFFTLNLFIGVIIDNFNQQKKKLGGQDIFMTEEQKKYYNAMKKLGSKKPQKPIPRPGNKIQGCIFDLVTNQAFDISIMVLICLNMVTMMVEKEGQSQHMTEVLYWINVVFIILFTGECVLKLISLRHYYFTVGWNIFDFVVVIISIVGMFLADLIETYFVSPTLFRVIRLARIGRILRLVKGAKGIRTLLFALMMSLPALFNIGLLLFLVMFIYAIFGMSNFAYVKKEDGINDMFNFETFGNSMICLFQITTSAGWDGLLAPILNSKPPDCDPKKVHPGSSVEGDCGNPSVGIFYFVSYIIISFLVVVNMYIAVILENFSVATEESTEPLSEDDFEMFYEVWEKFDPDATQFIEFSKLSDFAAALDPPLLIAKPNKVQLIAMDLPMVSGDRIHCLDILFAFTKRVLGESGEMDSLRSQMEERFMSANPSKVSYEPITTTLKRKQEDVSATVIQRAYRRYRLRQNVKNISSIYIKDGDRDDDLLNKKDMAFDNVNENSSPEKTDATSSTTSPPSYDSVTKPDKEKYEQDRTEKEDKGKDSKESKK
hNav1.7, sequence (Q07699 19-218 partner): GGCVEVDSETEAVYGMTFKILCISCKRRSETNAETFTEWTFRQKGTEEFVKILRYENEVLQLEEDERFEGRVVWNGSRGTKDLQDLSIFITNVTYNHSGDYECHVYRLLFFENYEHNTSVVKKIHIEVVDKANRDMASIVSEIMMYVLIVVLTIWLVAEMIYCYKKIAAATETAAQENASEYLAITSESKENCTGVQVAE
Details: not given
`O=C(NS(=O)(=O)C1CC1)c1cc(C2CC2)c(CN2CCC(Oc3ccc(F)cc3)CC2)cc1F` [Example 508, 5-cyclopropyl-N-(cyclopropylsulfonyl)-2-fluoro-4-((4-(4-fluorophenoxy)piperidin-1-yl)methyl)benzamide, trifluoroacetic acid salt] gave an IC50 of 44 nM.
Still for that read-out and setting: the result for `O=C(NS(=O)(=O)C1CC1)c1cc(C2CC2)c(O[C@@H]2CCCN(Cc3ccc(Cl)cc3Cl)C2)cc1F` [Example 31, (R)-5-cyclopropyl-N-(cyclopropylsulfonyl)-4-((1-(2,4-dichlorobenzyl)piperidin-3-yl)oxy)-2-fluorobenzamide] reads 2.6 nM.

Still in this test, the particulars now being: read-out: Ligand Binding Assay; 100 pM [3H]compound, membranes with hNav1.7 and β1 subunit, 18 h, room temperature.
Take `CS(=O)(=O)NC(=O)c1cc(C2CC2)c(OCC2CCN(S(=O)(=O)c3cccc(C(F)(F)F)c3)CC2)cc1F` [Example 374, 5-cyclopropyl-2-fluoro-N-(methylsulfonyl)-4-((1-((3-(trifluoromethyl)phenyl)sulfonyl)piperidin-4-yl)methoxy)benzamide]: the IC50 is 23.1 nM.
On the same count and under the same terms, the result for `C[C@@H](c1cc(Cl)cc(Cl)c1)N1CCC(COc2cc(F)c(C(=O)NS(=O)(=O)N3CCC3)cc2C2CC2)CC1` (single isomer, unassigned) [Example 272] reads 4.2 nM; that for `C[C@H](c1ccc(OC(F)(F)F)cc1)N1CCC(C)(COc2cc(F)c(C(=O)NS(C)(=O)=O)cc2C2CC2)CC1` (single isomer, unassigned) [Example 249], 39 nM.
For `CC(C)Oc1ncc([C@H](c2ccccc2)N2CC(COc3cc(F)c(C(=O)NS(C)(=O)=O)cc3C3CC3)C2)cc1Cl` [Example 114, (S)-4-((1-((5-Chloro-6-isopropoxypyridin-3-yl)(phenyl)methyl)azetidin-3-yl)methoxy)-5-cyclopropyl-2-fluoro-N-(methylsulfonyl)benzamide], the IC50 came to 7.27 nM.
The same measure, in the same setting: the result for `Cn1nc(C(F)(F)F)c(CN2CCC(COc3cc(F)c(C(=O)NS(=O)(=O)C4CC4)cc3C3CC3)CC2)c1Cl` [Example 357, 4-((1-((5-chloro-1-methyl-3-(trifluoromethyl)-1H-pyrazol-4-yl)methyl)piperidin-4-yl)methoxy)-5-cyclopropyl-N-(cyclopropylsulfonyl)-2-fluorobenzamide, trifluoroacetic acid salt] reads 13 nM; that for `O=C(NS(=O)(=O)C1CC1)c1cc(C2CC2)c(OCC2CCN(S(=O)(=O)c3ccc(Br)c(F)c3)CC2)cc1F` [Example 369, 4-((1-((4-bromo-3-fluorophenyl)sulfonyl)piperidin-4-yl)methoxy)-5-cyclopropyl-N-(cyclopropylsulfonyl)-2-fluorobenzamide], 14.5 nM; that for `CC1(COc2cc(F)c(C(=O)NS(=O)(=O)C3CC3)cc2C2CC2)CN(c2cc(Cl)c(C(F)(F)F)cn2)C1` [Example 486, 4-((1-(4-chloro-5-(trifluoromethyl)pyridin-2-yl)-3-methylazetidin-3-yl)methoxy)-5-cyclopropyl-N-(cyclopropylsulfonyl)-2-fluorobenzamide, trifluoroacetic acid salt], 5.6 nM.
The same measure, in the same setting: the result for `CS(=O)(=O)NC(=O)c1cc(C2CC2)c(OC[C@@H]2C[C@H]3CC[C@@H](C2)N3Cc2cc(C(F)(F)F)ccc2Cl)cc1F` [Example 399, 4-(((1R,3S,5S)-8-(2-chloro-5-(trifluoromethyl)benzyl)-8-azabicyclo[3.2.1]octan-3-yl)methoxy)-5-cyclopropyl-2-fluoro-N-(methylsulfonyl)benzamide, trifluoroacetic acid salt] reads 4.6 nM; that for `O=C(NS(=O)(=O)N1CCC1)c1cc(C2CC2)c(OC[C@@H]2CCCN(Cc3ccc(F)cc3Cl)C2)cc1F` [Example 333], 20.7 nM; that for `CS(=O)(=O)NC(=O)c1cc(C2CC2)c(OCC2CCN(Cc3ccc(Cl)cc3C(F)(F)F)CC2)cc1F` [Example 579, 4-((1-(4-chloro-2-(trifluoromethyl)benzyl)piperidin-4-yl)methoxy)-5-cyclopropyl-2-fluoro-N-(methylsulfonyl)benzamide], 2.9 nM.
Still for that read-out and setting: the result for `CS(=O)(=O)NC(=O)c1cc(C2CC2)c(OCC2CN([C@@H](c3ccccc3)c3ccc(S(C)(=O)=O)cc3)C2)cc1F` [Example 95, (S)-5-Cyclopropyl-2-fluoro-N-(methylsulfonyl)-4-((1-((4-(methylsulfonyl)phenyl)(phenyl)methyl)azetidin-3-yl)methoxy)benzamide] reads 1060 nM; that for `CS(=O)(=O)NC(=O)c1cc(C2CC2)c(O[C@@H]2CCCN([C@@H](c3ccc(F)cc3Cl)C(F)(F)F)C2)cc1F` (single isomer, unassigned) [Example 298], 4.6 nM.
Take `CC1(COc2cc(F)c(C(=O)NS(=O)(=O)N3CCC3)cc2C2CC2)CN(C(c2ccccc2)c2ccccc2)C1` [Example 71, N-(azetidin-1-ylsulfonyl)-4-((1-benzhydryl-3-methylazetidin-3-yl)methoxy)-5-cyclopropyl-2-fluorobenzamide]: the IC50 came out at 3.1 nM.
On the same count and under the same terms, the result for `CCS(=O)(=O)NC(=O)c1cc(C2CC2)c(OCC2CCN([C@H](C)c3ccc(F)cc3Cl)CC2)cc1F` (single isomer, unassigned) [Example 246] reads 7.7 nM.
In the case of `CS(=O)(=O)NC(=O)c1cc(C2CC2)c(OCC2CCN(Cc3ccc(F)cc3C(F)(F)F)CC2)cc1F` [Example 586, 5-cyclopropyl-2-fluoro-4-((1-(4-fluoro-2-(trifluoromethyl)benzyl)piperidin-4-yl)methoxy)-N-(methylsulfonyl)benzamide], the IC50 was 5.2 nM.
As for `O=C(NS(=O)(=O)C1CC1)c1cc(C2CC2)c(OCC2(F)CCN(Cc3cc(C(F)(F)F)cc(Cl)c3F)CC2)cc1F` [Example 347, 4-((1-(3-chloro-2-fluoro-5-(trifluoromethyl)benzyl)-4-fluoropiperidin-4-yl)methoxy)-5-cyclopropyl-N-(cyclopropylsulfonyl)-2-fluorobenzamide, trifluoroacetic acid salt], the IC50 was 6.3 nM.
On the same count and under the same terms, the result for `CCS(=O)(=O)NC(=O)c1cc(C2CC2)c(OCC2(C)CN([C@H](C)c3cc(Cl)cc(Cl)c3)C2)cc1F` (single isomer, unassigned) [Example 288] reads 3.5 nM.
Still for that read-out and setting: the result for `CS(=O)(=O)NC(=O)c1cc(C2CC2)c(O[C@@H]2CCCN(Cc3ccccc3-c3ccccc3)C2)cc1F` [Example 442, (R)-4-((1-([1,1′-biphenyl]-2-ylmethyl)piperidin-3-yl)oxy)-5-cyclopropyl-2-fluoro-N-(methylsulfonyl)benzamide, trifluoroacetic acid salt] reads 3.1 nM; that for `CS(=O)(=O)NC(=O)c1cc(C2CC2)c(OCC2CCN(Cc3ccc(Br)cc3C(F)(F)F)CC2)cc1F` [Example 585, 4-((1-(4-bromo-2-(trifluoromethyl)benzyl)piperidin-4-yl)methoxy)-5-cyclopropyl-2-fluoro-N-(methylsulfonyl)benzamide], 3.5 nM.
On the same count and under the same terms, the result for `COC[C@H](c1ccccc1)N1CCC(COc2cc(F)c(C(=O)NS(C)(=O)=O)cc2C2CC2)CC1` [Example 223, (S)-5-cyclopropyl-2-fluoro-4-((1-(2-methoxy-1-phenylethyl)piperidin-4-yl)methoxy)-N-(methylsulfonyl)benzamide] reads 250 nM.
In the case of `O=C(NS(=O)(=O)C1CC1)c1cc(C2CC2)c(OCC2CCN(C(=O)c3cccc(Cl)c3)CC2)cc1F` [Example 196, 4-((1-(3-Chlorobenzoyl)piperidin-4-yl)methoxy)-5-cyclopropyl-N-(cyclopropylsulfonyl)-2-fluorobenzamide], the IC50 turned out to be 43 nM.
